{"source": "paper PMC5218480", "about": "(PLoS ONE, 2017)", "tested_on": "MV-4-11 cells", "assay": "Gene expression microarray analysis (Affymetrix PrimeView) and GSEA", "assay_type": "cell-based, human", "set-up": "RFU PODN (11730768_x_at) / Fold change /veh PODN (11730768_x_at) / RFU LINC00158 (11744669_a_at) / Fold change /veh LINC00158 (11744669_a_at) / RFU DUSP10 (11751237_a_at) / Fold change /veh DUSP10 (11751237_a_at) / RFU ID3 (11757404_x_at) / Fold change /veh ID3 (11757404_x_at) / RFU PLEKHG5 (11737974_s_at) / Fold change /veh PLEKHG5 (11737974_s_at) / RFU LRRC4B (11730491_at) / Fold change /veh LRRC4B (11730491_at) / RFU GIMAP4 (11747438_a_at) / Fold change /veh GIMAP4 (11747438_a_at) / RFU KRT8 (11758183_x_at) / Fold change /veh KRT8 (11758183_x_at) / RFU CNN1 (11734310_a_at) / Fold change /veh CNN1 (11734310_a_at) / RFU VPS37D (11726825_at) / Fold change /veh VPS37D (11726825_at) / RFU C10orf10 (11716522_x_at) / Fold change /veh C10orf10 (11716522_x_at) / RFU KIR2DL2 /// KIR2DL4 /// KIR2DL5A /// KIR2DL5B /// KIR2DS1 /// KIR2DS2 /// KIR2DS3 /// KIR2DS4 /// KIR3DL3 /// KIR3DL3 /// KIR3DS1 (11738374_at) / Fold change /veh KIR2DL2 /// KIR2DL4 /// KIR2DL5A /// KIR2DL5B /// KIR2DS1 /// KIR2DS2 /// KIR2DS3 /// KIR2DS4 /// KIR3DL3 /// KIR3DL3 /// KIR3DS1 (11738374_at) / RFU C1QL1 (11718748_at) / Fold change /veh C1QL1 (11718748_at) / RFU TMPRSS4 (11747572_a_at) / Fold change /veh TMPRSS4 (11747572_a_at) / RFU HAMP (11756126_x_at) / Fold change /veh HAMP (11756126_x_at) / RFU RNFT2 (11725882_a_at) / Fold change /veh RNFT2 (11725882_a_at) / RFU NR4A2 (11747474_a_at) / Fold change /veh NR4A2 (11747474_a_at) / RFU ABCC12 (11746883_a_at) / Fold change /veh ABCC12 (11746883_a_at) / RFU TMEM136 (11760407_x_at) / Fold change /veh TMEM136 (11760407_x_at) / RFU CLDN22 /// WWC2 (11732394_at) / Fold change /veh CLDN22 /// WWC2 (11732394_at) / RFU HLA-DPB1 (11760878_x_at) / Fold change /veh HLA-DPB1 (11760878_x_at) / RFU SPINT1 (11716480_a_at) / Fold change /veh SPINT1 (11716480_a_at) / RFU GAP43 (11754022_s_at) / Fold change /veh GAP43 (11754022_s_at) / RFU A4GNT (11735810_at) / Fold change /veh A4GNT (11735810_at) / RFU PRB3 (11715151_x_at) / Fold change /veh PRB3 (11715151_x_at) / RFU TUBB4B (11761932_at) / Fold change /veh TUBB4B (11761932_at) / RFU CAPN14 (11732068_a_at) / Fold change /veh CAPN14 (11732068_a_at) / RFU TMCC2 (11721928_a_at) / Fold change /veh TMCC2 (11721928_a_at) / RFU IRGQ (11745062_a_at) / Fold change /veh IRGQ (11745062_a_at) / RFU FAM174B (11720279_a_at) / Fold change /veh FAM174B (11720279_a_at) / RFU TMPRSS4 (11748680_a_at) / Fold change /veh TMPRSS4 (11748680_a_at) / RFU FAM212B (11763350_a_at) / Fold change /veh FAM212B (11763350_a_at) / RFU PLEKHG5 (11743358_a_at) / Fold change /veh PLEKHG5 (11743358_a_at) / RFU ZSCAN30 (11745921_a_at) / Fold change /veh ZSCAN30 (11745921_a_at) / RFU CMKLR1 (11741424_a_at) / Fold change /veh CMKLR1 (11741424_a_at) / RFU LOC101060620 /// MAPK8IP1 (11723275_at) / Fold change /veh LOC101060620 /// MAPK8IP1 (11723275_at) / RFU SPTSSB (11747773_x_at) / Fold change /veh SPTSSB (11747773_x_at) / RFU PRSS12 (11739890_at) / Fold change /veh PRSS12 (11739890_at) / RFU BIN1 (11741810_x_at) / Fold change /veh BIN1 (11741810_x_at) / RFU WNT11 (11732464_a_at) / Fold change /veh WNT11 (11732464_a_at) / RFU C10orf10 (11716521_a_at) / Fold change /veh C10orf10 (11716521_a_at) / RFU C5orf56 (11738089_at) / Fold change /veh C5orf56 (11738089_at) / RFU CYB561 (11721691_x_at) / Fold change /veh CYB561 (11721691_x_at) / RFU ANKRD19P (11752326_a_at) / Fold change /veh ANKRD19P (11752326_a_at) / RFU OR2T12 /// OR2T33 /// OR2T8 (11738714_s_at) / Fold change /veh OR2T12 /// OR2T33 /// OR2T8 (11738714_s_at) / RFU VCAN (11748164_a_at) / Fold change /veh VCAN (11748164_a_at) / RFU JSRP1 (11732532_at) / Fold change /veh JSRP1 (11732532_at) / RFU KRTAP10-11 (11738290_x_at) / Fold change /veh KRTAP10-11 (11738290_x_at) / RFU MYO3A (11730013_a_at) / Fold change /veh MYO3A (11730013_a_at) / RFU EBF3 (11725865_a_at) / Fold change /veh EBF3 (11725865_a_at) / RFU CAMK2N1 (11719241_x_at) / Fold change /veh CAMK2N1 (11719241_x_at) / RFU C5orf56 (11738088_a_at) / Fold change /veh C5orf56 (11738088_a_at) / RFU OLFML3 (11715873_a_at) / Fold change /veh OLFML3 (11715873_a_at) / RFU LOC100653217 /// NTM (11731650_a_at) / Fold change /veh LOC100653217 /// NTM (11731650_a_at) / RFU MAPK11 (11762145_a_at) / Fold change /veh MAPK11 (11762145_a_at) / RFU FIZ1 (11724087_x_at) / Fold change /veh FIZ1 (11724087_x_at) / RFU OASL (11726364_x_at) / Fold change /veh OASL (11726364_x_at) / RFU SOX15 (11748057_x_at) / Fold change /veh SOX15 (11748057_x_at) / RFU CD79A (11719716_a_at) / Fold change /veh CD79A (11719716_a_at) / RFU HIST1H1D (11736915_at) / Fold change /veh HIST1H1D (11736915_at) / RFU CASKIN2 (11723855_a_at) / Fold change /veh CASKIN2 (11723855_a_at) / RFU LOC730098 (11760151_x_at) / Fold change /veh LOC730098 (11760151_x_at) / RFU OR4N2 (11742367_at) / Fold change /veh OR4N2 (11742367_at) / RFU PRRT2 (11749266_a_at) / Fold change /veh PRRT2 (11749266_a_at) / RFU SNX32 (11753110_a_at) / Fold change /veh SNX32 (11753110_a_at) / RFU CDHR5 (11726645_a_at) / Fold change /veh CDHR5 (11726645_a_at) / RFU RCAN1 (11760418_a_at) / Fold change /veh RCAN1 (11760418_a_at) / RFU FAM167A (11723789_a_at) / Fold change /veh FAM167A (11723789_a_at) / RFU FAM26E (11764081_at) / Fold change /veh FAM26E (11764081_at) / RFU ISYNA1 (11749810_s_at) / Fold change /veh ISYNA1 (11749810_s_at) / RFU ACY1 (11761880_at) / Fold change /veh ACY1 (11761880_at) / RFU 11764098_at / Fold change /veh 11764098_at / RFU SAMD14 (11745864_x_at) / Fold change /veh SAMD14 (11745864_x_at) / RFU NPB (11741838_a_at) / Fold change /veh NPB (11741838_a_at) / RFU TMPRSS6 (11731388_a_at) / Fold change /veh TMPRSS6 (11731388_a_at) / RFU KRTAP10-2 (11738614_at) / Fold change /veh KRTAP10-2 (11738614_at) / RFU ARHGAP8 /// PRR5-ARHGAP8 (11727945_x_at) / Fold change /veh ARHGAP8 /// PRR5-ARHGAP8 (11727945_x_at) / RFU KRTAP5-7 /// NADSYN1 (11734609_at) / Fold change /veh KRTAP5-7 /// NADSYN1 (11734609_at) / RFU RASL12 (11751679_a_at) / Fold change /veh RASL12 (11751679_a_at) / RFU CDKN2B (11736163_a_at) / Fold change /veh CDKN2B (11736163_a_at) / RFU PRF1 (11729649_at) / Fold change /veh PRF1 (11729649_at) / RFU, ZNF638 /// ZNF638-IT1 / Fold change vs veh, ZNF638 /// ZNF638-IT1 / RFU, PANK3 / Fold change vs veh, PANK3 / RFU, SH3YL1 / Fold change vs veh, SH3YL1 / RFU, ZEB2 / Fold change vs veh, ZEB2 / RFU, NRIP1 / Fold change vs veh, NRIP1 / RFU, PTTG1IP / Fold change vs veh, PTTG1IP / RFU, CAPN2 / Fold change vs veh, CAPN2 / RFU, MED14 / Fold change vs veh, MED14 / RFU, SNORA58 / Fold change vs veh, SNORA58 / RFU, C1orf63 / Fold change vs veh, C1orf63 / RFU, LRRFIP1 / Fold change vs veh, LRRFIP1 / RFU, NDUFAF7 / Fold change vs veh, NDUFAF7 / RFU, SLC12A2 / Fold change vs veh, SLC12A2 / RFU, IBTK / Fold change vs veh, IBTK / RFU, ESF1 / Fold change vs veh, ESF1 / Fold change vs veh, TMEM50B / RFU, TAOK1 / Fold change vs veh, TAOK1 / RFU, ACBD3 / Fold change vs veh, ACBD3 / RFU, TMA16 / Fold change vs veh, TMA16 / RFU, RWDD3 / Fold change vs veh, RWDD3 / RFU, BCAT1 / Fold change vs veh, BCAT1 / RFU, EDEM3 / Fold change vs veh, EDEM3 / RFU, TMEM33 / Fold change vs veh, TMEM33 / RFU, WDR75 / Fold change vs veh, WDR75 / RFU, AHCTF1 / Fold change vs veh, AHCTF1 / RFU, TFRC / Fold change vs veh, TFRC / RFU, ZDHHC17 / Fold change vs veh, ZDHHC17 / RFU, NOM1 / Fold change vs veh, NOM1 / RFU, ARL8B / Fold change vs veh, ARL8B / RFU, ZBTB11 / Fold change vs veh, ZBTB11 / RFU, TAMM41 / Fold change vs veh, TAMM41 / RFU, KIAA1704 /// LOC100996395 / Fold change vs veh, KIAA1704 /// LOC100996395 / RFU, ING1 / Fold change vs veh, ING1 / RFU, TRMT61B / Fold change vs veh, TRMT61B / RFU, FUBP3 / Fold change vs veh, FUBP3 / RFU, TP53 / Fold change vs veh, TP53 / RFU, TNKS2 / Fold change vs veh, TNKS2 / RFU, ZFP14 / Fold change vs veh, ZFP14 / RFU, ACTR2 / Fold change vs veh, ACTR2 / RFU, PPP3R1 / Fold change vs veh, PPP3R1 / RFU, PIK3R1 / Fold change vs veh, PIK3R1 / RFU, HNRNPA1 / Fold change vs veh, HNRNPA1 / RFU, RNF170 / Fold change vs veh, RNF170 / RFU, ZNF28 / Fold change vs veh, ZNF28 / RFU, RNGTT / Fold change vs veh, RNGTT / RFU, OGT / Fold change vs veh, OGT / RFU, BRD1 / Fold change vs veh, BRD1 / RFU, MARS / Fold change vs veh, MARS / RFU, ZNF655 / Fold change vs veh, ZNF655 / RFU, FAHD1 / Fold change vs veh, FAHD1 / RFU, BDP1 / Fold change vs veh, BDP1 / RFU, LRRCC1 / Fold change vs veh, LRRCC1 / RFU, ARID1A / Fold change vs veh, ARID1A / RFU, ZNF146 / Fold change vs veh, ZNF146 / RFU, ZNF330 / Fold change vs veh, ZNF330 / RFU, GPN3 / Fold change vs veh, GPN3 / RFU, C9orf123 / Fold change vs veh, C9orf123 / RFU, N4BP2L2 / Fold change vs veh, N4BP2L2 / RFU, ARFIP1 / Fold change vs veh, ARFIP1 / RFU, FAM179B / Fold change vs veh, FAM179B / RFU, BCL10 / Fold change vs veh, BCL10 / RFU, UHRF1BP1L / Fold change vs veh, UHRF1BP1L / RFU, BET1 / Fold change vs veh, BET1 / RFU, CNOT2 / Fold change vs veh, CNOT2 / RFU, ZNF268 / Fold change vs veh, ZNF268 / Fold change vs veh, ZNF507 / RFU, DGCR2 / Fold change vs veh, DGCR2 / RFU, WDSUB1 / Fold change vs veh, WDSUB1 / Fold change vs veh, HSP90B1 /// MIR3652 / RFU, ADSS / Fold change vs veh, ADSS / RFU, GK / Fold change vs veh, GK / RFU, ZNF148 / Fold change vs veh, ZNF148 / RFU, TAF9 / Fold change vs veh, TAF9 / RFU, SLC1A5 / Fold change vs veh, SLC1A5 / RFU, SLMO2 / Fold change vs veh, SLMO2 / RFU, ABCC4 / Fold change vs veh, ABCC4 / RFU, LOC101060439 /// RAP1B / Fold change vs veh, LOC101060439 /// RAP1B / RFU, RFX7 / Fold change vs veh, RFX7 / RFU, GTPBP10 / Fold change vs veh, GTPBP10 / RFU, CNEP1R1 / Fold change vs veh, CNEP1R1 / RFU, BIVM-ERCC5 /// ERCC5 / Fold change vs veh, BIVM-ERCC5 /// ERCC5 / RFU, ILF3 / Fold change vs veh, ILF3 / RFU 11762660_at / Fold change /veh 11762660_at / RFU VCAN (11757783_s_at) / Fold change /veh VCAN (11757783_s_at) / RFU DDX43 (11728927_at) / Fold change /veh DDX43 (11728927_at) / RFU KRT8 (11758188_x_at) / Fold change /veh KRT8 (11758188_x_at) / RFU NKD1 (11759106_at) / Fold change /veh NKD1 (11759106_at) / RFU SRD5A1 (11742802_a_at) / Fold change /veh SRD5A1 (11742802_a_at) / RFU TPSAB1 /// TPSB2 (11721975_s_at) / Fold change /veh TPSAB1 /// TPSB2 (11721975_s_at) / RFU GSTM3 (11746129_a_at) / Fold change /veh GSTM3 (11746129_a_at) / RFU IL23R (11737362_x_at) / Fold change /veh IL23R (11737362_x_at) / RFU TMEM51 (11727254_a_at) / Fold change /veh TMEM51 (11727254_a_at) / RFU PIWIL2 (11732686_x_at) / Fold change /veh PIWIL2 (11732686_x_at) / RFU ORM1 (11744905_x_at) / Fold change /veh ORM1 (11744905_x_at) / RFU CCDC152 (11743942_at) / Fold change /veh CCDC152 (11743942_at) / RFU ECM1 (11717891_a_at) / Fold change /veh ECM1 (11717891_a_at) / RFU IL23R (11748794_a_at) / Fold change /veh IL23R (11748794_a_at) / RFU TNFAIP8L3 (11732012_x_at) / Fold change /veh TNFAIP8L3 (11732012_x_at) / RFU MBOAT4 (11741988_at) / Fold change /veh MBOAT4 (11741988_at) / RFU 11764193_at / Fold change /veh 11764193_at / RFU TMEM53 (11763286_at) / Fold change /veh TMEM53 (11763286_at) / RFU MAGEB2 (11727129_at) / Fold change /veh MAGEB2 (11727129_at) / RFU TMEM200A (11744735_a_at) / Fold change /veh TMEM200A (11744735_a_at) / RFU CCDC152 (11751479_a_at) / Fold change /veh CCDC152 (11751479_a_at) / RFU FAM211A (11726209_a_at) / Fold change /veh FAM211A (11726209_a_at) / RFU RGS16 (11746705_a_at) / Fold change /veh RGS16 (11746705_a_at) / RFU VCAN (11755009_s_at) / Fold change /veh VCAN (11755009_s_at) / RFU RHOB (11743442_s_at) / Fold change /veh RHOB (11743442_s_at) / RFU RGS16 (11720943_a_at) / Fold change /veh RGS16 (11720943_a_at) / RFU RGS16 (11720944_at) / Fold change /veh RGS16 (11720944_at) / RFU, VPS4B / Fold change vs veh, VPS4B / RFU, CREB1 / Fold change vs veh, CREB1 / RFU, DNAJC13 / Fold change vs veh, DNAJC13 / RFU, GNAQ / Fold change vs veh, GNAQ / RFU, CDK5R1 / Fold change vs veh, CDK5R1 / RFU, ZRANB3 / Fold change vs veh, ZRANB3 / RFU, CUL4A / Fold change vs veh, CUL4A / RFU, CCNY / Fold change vs veh, CCNY / RFU, UFL1 / Fold change vs veh, UFL1 / RFU, COG3 / Fold change vs veh, COG3 / RFU, DIAPH2 / Fold change vs veh, DIAPH2 / RFU, SKA2 / Fold change vs veh, SKA2 / RFU, AFF3 / Fold change vs veh, AFF3 / RFU, LMF1 / Fold change vs veh, LMF1 / RFU, IPO11 / Fold change vs veh, IPO11 / RFU, DFFB / Fold change vs veh, DFFB / RFU, FOXP1 / Fold change vs veh, FOXP1 / RFU, CARD8 / Fold change vs veh, CARD8 / RFU, STRN3 / Fold change vs veh, STRN3 / RFU, ADK / Fold change vs veh, ADK / RFU, RASSF2 / Fold change vs veh, RASSF2 / RFU, WIPF1 / Fold change vs veh, WIPF1 / RFU, LARP1B / Fold change vs veh, LARP1B / RFU, RASA1 / Fold change vs veh, RASA1 / RFU, RB1 / Fold change vs veh, RB1 / RFU, PPFIA1 / Fold change vs veh, PPFIA1 / RFU, MAT2A / Fold change vs veh, MAT2A / RFU, CCT5 / Fold change vs veh, CCT5 / RFU, WDR92 / Fold change vs veh, WDR92 / RFU, CUX1 / Fold change vs veh, CUX1 / RFU, TTC7A / Fold change vs veh, TTC7A / RFU, TMEM135 / Fold change vs veh, TMEM135 / RFU, DEPTOR / Fold change vs veh, DEPTOR / RFU, CPM / Fold change vs veh, CPM / RFU, DNAJB6 / Fold change vs veh, DNAJB6 / RFU, CACNA2D3 / Fold change vs veh, CACNA2D3 / RFU, DTX4 / Fold change vs veh, DTX4 / RFU, TFCP2 / Fold change vs veh, TFCP2 / RFU, GMCL1 /// GMCL1P1 / Fold change vs veh, GMCL1 /// GMCL1P1 / RFU, AEBP2 / Fold change vs veh, AEBP2 / RFU, SNHG1 /// SNORD22 /// SNORD25 /// SNORD26 /// SNORD27 /// SNORD28 /// SNORD29 /// SNORD31 / Fold change vs veh, SNHG1 /// SNORD22 /// SNORD25 /// SNORD26 /// SNORD27 /// SNORD28 /// SNORD29 /// SNORD31 / Fold change (Aza/veh), C12orf56 (ProbeSet 11735607_a_at) / Fold change (ACY-1035/veh), C12orf56 (ProbeSet 11735607_a_at) / Fold change (Aza/veh), FGFR1OP (ProbeSet 11751329_s_at) / Fold change (ACY-1035/veh), FGFR1OP (ProbeSet 11751329_s_at) / Fold change (Aza/veh), VPS36 (ProbeSet 11739960_a_at) / Fold change (ACY-1035/veh), VPS36 (ProbeSet 11739960_a_at) / RFU SYPL1 (11715823_x_at) / Fold change /veh SYPL1 (11715823_x_at) / RFU IGFBP7 (11715501_s_at) / Fold change /veh IGFBP7 (11715501_s_at) / RFU REEP3 (11722064_at) / Fold change /veh REEP3 (11722064_at) / RFU IGLL1 (11728026_x_at) / Fold change /veh IGLL1 (11728026_x_at): dose or concentration left out as unconfirmed", "conditions": "MV-4-11 cells, 48 hours"}
{"smiles": "Nc1ncn([C@@H]2O[C@H](CO)[C@@H](O)[C@H]2O)c(=O)n1", "note": "[azacitidine]", "values": [{"measurement": "Fold change /veh TNFAIP8L3 (11732012_x_at)", "value": 1.33}]}
